# Measured values: PMC12491715 (Acta Pharmaceutica Sinica. B, 2025)
# Columns and labels:
# [1] = Plasma and brain distribution profile in mice; conditions: 1 mg/kg, intravenous and peroral
# Text: Animals All mice used were 9–15 weeks old wild-type BALB/c mice bred in the Laboratory of Animal Genomics at the Faculty of Veterinary Medicine, University of Ljubljana. For intravenous administration, 4 males and one female were additionally purchased from Envigo RMS Holding Corp. Mice were conventionally bred in open polycarbonate cages (Tecniplast, Buguggiate, Italy) and provided with wood chip bedding (Lignocel®, Rettenmaier and Sons, Germany). Mice were kept under standard conditions, i.e., a 12:12 dark–light cycle (LED, CCT 3000 K, ≤ 25 lux above the cage), at temperature 21–24 °C, and 50%–60% humidity. They were fed irradiated rodent diet with minimal levels of phytoestrogens (Teklad global 16% protein rodent diet®, BN 2916, Envigo, Udine, Italy) and had access to drinkable tap water ad libitum.
# For each time point, 4 mice, two females and two males, were used. A total of 24 animals were used (n = 24) for each route of administration. […] Peroral administration was performed via flexible plastic feeding tubes (20G × 30 mm, Instech Laboratories, USA) by gavage, with volume dose of 200 μL/20 g body weight. Intravenous administration into the tail vein was performed under isoflurane inhalation anesthesia (Isoflurin®, VetPharma, Spain) using a syringe (INSULIN100, 29G × 1/2″, 12.7 mm, CHINS00329, Chirana T. Injecta, a.s., Slovakia) with a volume dose of 150 μL. […]
# [2] = tested on: C57BL/6JRccHsd mice; experiment: Daily observation during repeated dosing; type: in vivo; conditions: 1 or 5 mg/kg p.o. daily for 27 days
# Protocol: […]. […] Due to the nature of this pilot study, the mice were housed individually.
# Seven animals received the 1 mg/kg dose of compound 8, and five animals received the 5 mg/kg dose of compound 8. Compound 8 was prepared as a stock solution in 100% MeCN (5 and 10 mg/mL) and kept refrigerated for the duration of the study. The dosages were prepared as follows: based on the animal’s body weight, a calculated volume of compound 8 stock solution was accurately pipetted onto a cubic piece (approx. 50 mg) of sterilized toast (Ölz multigrain toast, Rudolf Ölz Meisterbäcker GmbH & Co KG, Austria), and left to dry at room temperature for 5 min. Subsequently, 25 μL of 50% sucrose in distilled water were added at the same site to mask the bitter taste of compound 8. These dosage units were prepared twice a week during the study and stored in a closed glass petri dish at room temperature until use. For administration, the toast pieces were placed on the floor of the cage at the same time each day, and left for the animal to eat it voluntarily (the consumption of the dosage was confirmed by observation). Compound 8 was administered in this way for 27 days, eliminating the need for repeated handling and injection. The animals were observed daily for general activity level, hair coat quality or other abnormal behavior or clinical signs.
# [3] = MTS assay, metabolic activity; type: cell-based; conditions: human, SH-SY5Y neuroblastoma cells, read-out: cytotoxic EC50
# Protocol: Cell culture and treatments The human neuroblastoma SH-SY5Y cell line was purchased from American Type Culture Collection (Manassas, VA, USA). Cells were cultured in Advanced Dulbecco’s modified Eagle’s medium (Gibco, Thermo Fisher Scientific, Waltham, MA, USA) supplemented with 10% fetal bovine serum (FBS, Gibco), 2 mmol/L L-glutamine, 50 U/mL penicillin and 50 μg/mL streptomycin (Sigma, St. Louis, MO, USA) in a humidified atmosphere of 95% air and 5% CO2 at 37 °C, and grown to 80% confluence. Prior to cell treatment, complete medium was replaced with serum-reduced medium (i.e., with 2% FBS). Compounds were prepared as a stock solution of 50 mmol/L in DMSO.
# MTS assay SH-SY5Y cells were seeded in 96-well plates (10^4/well) and assessed by MTS ([3-(4,5-dimethylthiazol-2-yl)-5-(3-carboxymethoxyphenyl)-2-(4-sulfophenyl)-2H-tetrazolium, inner salt) assay for their response to compounds. Cells were treated with increasing concentrations of compounds (0.1–10 μmol/L for 5, 1–100 μmol/L for 6–8) in a serum-reduced medium, and metabolic activity was assessed after 24 h (5) or 48 h (6–8) using the CellTiter 96® Aqueous One Solution Cell Proliferation Assay (Promega, Madison, WI, USA), in accordance with the manufacturer’s instructions. Absorbance was measured with an automatic microplate reader (Tecan Safire^2, Switzerland) at 492 nm. Results are presented as a percentage of the control (DMSO).
smiles,measurement,setting,value
"CCN(CC)C(=O)n1cnc(C2(CC)Cc3ccccc3C2)c1 [Compound 8, N,N-Diethyl-4-(2-ethylindan-2-yl)-1H-imidazole-1-carboxamide]",blood–brain barrier permeation,[1],quickly permeated the blood–brain barrier
same,adverse effects on repeated dosing,[2],No adverse effects were observed
same,EC50 at 48 h,[3],> 100 µM
